Active and inactive are the calls of the source. The rule behind the calls is not given here.
System: S. cerevisiae expressing PfHSP40, growth rescue, plate reader
Assay: S cerevisiae expressing PfHSP40, growth rescue, cherry pick dose confirmatory, plate reader (AID 540271);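 note: yeast growth read after three days of incubation at 30 °C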

| SMILES | AC50 |
| --- | --- |
| Cc1cc(C)c(C(=O)CC(=O)c2cccnc2)c(C)c1 | 2.06 µM |
| CCc1oc2ccccc2c1C(=O)c1cc(Br)c(O)c(Br)c1 | 3.28 µM |
| Cc1ccccc1OCC(O)Cn1c2ccccc2c2ccccc21 (stereo not drawn) | 4.74 µM |
| O=C(NC1=CC(=O)c2ccccc2C1=O)c1ccccc1 | 7.77 µM |
| N#C/C(=C\c1cccc(Oc2ccccc2)c1)C(=O)N1CCOCC1 | 5.91 µM |
| COc1ccc2c(n1)Sc1nc3ccccc3nc1N2 | 1.35 µM |
| CCCCn1c(=O)c(C(=O)NCc2ccncc2)c(O)c2ccccc21 | 4.99 µM |
| Cc1ccc(Sc2ccc(NC(=O)CCl)cc2)cc1C | 4.54 µM |
| Cc1ccc(C(=O)Sc2cccccc2=O)cc1 | 0.295 µM |
| O/N=C/c1ccccc1OCc1ccc(Cl)cc1 | 5.07 µM |
| c1ccc(-c2ccc(SCc3cccnc3)nn2)nc1 | > 12 µM (inactive) |
| Clc1cccc(CON/C=N/c2ncnc3sccc23)c1 | 3.74 µM |
| Oc1c(I)cc(Cl)c2cccnc12 | 0.629 µM |
| Cc1ccc2c(C)c3ccc4ccccc4c3c[n+]2c1 | 6 µM |
| O=C(COC(=O)c1ccc([N+](=O)[O-])o1)NCc1ccc(F)cc1 | 6.66 µM |
| CCC(=O)NC(c1cc(Cl)c2cccnc2c1O)C(C)C (stereo not drawn) | 5.29 µM |
| O=C(c1ccc(-c2ccccc2)cc1)C1CCCN(C(=O)c2cncs2)C1 (stereo not drawn) | 5.93 µM |
| O=c1c(O)c(-c2ccccc2)oc2ccccc12 | 5.37 µM |
| COC(OC)c1ccc(C#N)c(SCc2ccccc2)n1 | 7.52 µM |
| O=[N+]([O-])c1cc(C(F)(F)F)ccc1NCCc1c[nH]c2ccc(O)cc12 | 4.85 µM |

| SMILES | AC50 |
| --- | --- |
| CCc1ccc(S(=O)(=O)N(C(=O)c2ccncc2)c2ccc(OC(=O)c3ccncc3)cc2)cc1 | 3.01 µM |
| O=Cc1ccc(O)c2ncccc12 | 0.366 µM |
| COc1cccc(/C=N/Nc2ncnc3scc(-c4ccccc4)c23)c1O | 1.7 µM |
| Cc1nc2ccc(C(C(F)(F)F)(C(F)(F)F)C(F)(F)F)cc2[nH]1 | 3.2 µM |
| COc1ccc(/C=N/Nc2cc(C)nc(-n3nc(C)cc3C)n2)cc1 | 5.99 µM |
| Cc1ccc(C(C[N+](=O)[O-])c2c(N)n(C)c(=O)n(C)c2=O)cc1 (stereo not drawn) | 6.03 µM |
| CCN(CC)C(=O)CSc1ncnc2sc(-c3ccccc3)cc12 | 8.72 µM |
| CC(C)NC(=O)NC(=O)COC(=O)c1ccc([N+](=O)[O-])cc1Cl | 12 µM |
| CCOC(=O)c1c(C)oc2c1C(=O)c1ccccc1C2=O | 6.76 µM |
| O=C(NCCC1=CCCCC1)c1c(O)nc2sccn2c1=O | 3.82 µM |
| Cc1ccc(Nc2cc(C)nn2-c2nc(C)cc(C)n2)cc1 | 3.95 µM |
| Cc1ccc(C(C)(C)C)cc1S(=O)(=O)Nc1ncnc2sccc12 | 2.83 µM |
| CCCn1c2ccccc2c2cc(C(=O)O)ccc21 | 7.09 µM |
| Cc1ccoc1C(=O)Nc1cccc(Oc2ccccc2)c1 | 2.85 µM |
| O=C(Nc1nc(-c2ccccn2)cs1)c1ccc(Br)s1 | 0.584 µM |
| Cc1onc(-c2ccccc2)c1C(=O)NC(=S)NNC(=O)c1ccc(O)cc1O | 4.82 µM |
| CCOC(=O)C1=C(Cc2ccc(OC)cc2)C(=O)c2ccccc2C1=O | 5.4 µM |
| Cc1cc(-c2ccccc2)n(-c2cc(N/N=C/c3ccccc3O)ncn2)n1 | 5.77 µM |
| COc1ccc(-c2cc(C(=O)N3CCN(c4ccccc4F)CC3)c3ccccc3n2)c(OC)c1 | 5.68 µM |
| CCc1ccc(C(C)NC(=S)NC2CCCCC2)cc1 (stereo not drawn) | 7.1 µM |

| SMILES | AC50 |
| --- | --- |
| [O-][n+]1cccc2c(Br)cc(Br)c(O)c21 | 2.69 µM |
| CN(C(=O)COC(=O)c1ccc([N+](=O)[O-])cc1Cl)C1CCCCC1 | 9.99 µM |
| Cc1cccc(NS(=O)(=O)c2ccc(-c3cnc(C4CC4)o3)cc2)c1C | 5.32 µM |
| CCCCC(=O)NC(c1ccco1)c1cc(Cl)c2cccnc2c1O (stereo not drawn) | 2 µM |
| Clc1ccccc1CN(Cc1ccco1)Cc1nnnn1C1CCCC1 | 5.17 µM |
| CCOC(=O)c1ccc(-c2ccc(C3Nc4ccccc4C(=O)N3O)o2)cc1 (stereo not drawn) | 3.91 µM |
| Cc1onc(-c2c(Cl)cccc2Cl)c1C(=O)N/N=C(\N)COc1ccc(Cl)cc1 | 3.02 µM |
| Nc1nc(-c2ccccc2)c(-c2ccc([N+](=O)[O-])cc2)s1 | 3.99 µM |
| O=C1c2ccccc2NC(c2ccc(-c3ccc(F)cc3)o2)N1O (stereo not drawn) | 8.42 µM |
| COc1ccc(NC(=O)/C(Cl)=C(/Cl)S(=O)(=O)Cc2ccc(C)cc2)cn1 | 4.67 µM |
| CC(=O)Nc1ccc2c(c1)Cc1cc(N3C(=O)C=CC3=O)ccc1-2 | 0.526 µM |
| CNc1cc(CSC)nc(SCc2ccc(Cl)cc2Cl)n1 | 4.18 µM |
| CC1CC(C)CC(C)C(O)C(C#N)=CC=CCC(C2CCCC2C(=O)O)OC(=O)CC(O)C(C)C1 (stereo not drawn) | 5.14 µM |
| Cc1cc(C(=O)N/N=C/c2ccc(O)c(O)c2O)c(C)n1-c1ccccc1 | 3.41 µM |
| Cc1cc(/C=N/n2cnnc2)c(C)n1-c1ccc(OCc2ccc(F)cc2)cc1 | 4.69 µM |
| CC(=O)Nc1cccc(NC(=O)CSc2ccc(-c3ccccn3)nn2)c1 | 3.64 µM |
| O=[N+]([O-])c1ccc(-c2nc(-c3cccs3)c(-c3cccs3)[nH]2)cc1 | 4.2 µM |
| Cn1nnnc1N=N/C(=N/Nc1ccccc1)c1ccccc1 | 1.85 µM |
